ChEMBL document CHEMBL1268830, “Efficient synthesis and biological evaluation of some 2,4-diamino-furo[2,3-d]pyrimidine derivatives” (Bioorg Med Chem Lett, 2010)
pIC50: −log10 of the molar value.

Experiments:
[1] = Cytotoxicity against human sSPC-A1 cells after 48 hrs by MTT assay; assay type: functional, cell-based; conditions: sSPC-A1, 48 h
A549 = experiment: Cytotoxicity against human A549 cells after 48 hrs by MTT assay; assay type: functional, cell-based; conditions: A549, 48 h

Work on `CCOC(=O)c1c(C)oc2nc(Nc3cccc(C)c3)nc(N3CCN(C)CC3)c12` yielded a pIC50 [1] of 4.74 and a pIC50 (A549) of 5.26.

With `CCOC(=O)c1c(C)oc2nc(Nc3ccccc3)nc(N3CCN(C)CC3)c12` the pIC50 [1] was 4.58 and the pIC50 (A549) was 6.10.

With `CCOC(=O)c1c(C)oc2nc(Nc3ccccc3)nc(NCCO)c12` the pIC50 [1] was 4.62 and the pIC50 (A549) was 4.89.

`CCOC(=O)c1c(C)oc2nc(Nc3ccccc3)nc(N3CCOCC3)c12` gave a pIC50 [1] of 4.16 and a pIC50 (A549) of 4.82.

`CCOC(=O)c1c(C)oc2nc(Nc3ccccc3)nc(NC(C)C)c12` showed a pIC50 (A549) of 4.67.

`CCOC(=O)c1c(C)oc2nc(Nc3cccc(C)c3)nc(N3CCOCC3)c12` showed a pIC50 [1] of 4.15 and a pIC50 (A549) of 4.85.

`CCOC(=O)c1c(C)oc2nc(Nc3cccc(C)c3)nc(N(CC)CC)c12` gave a pIC50 (A549) of 5.06.

In the case of `CCCCNc1nc(Nc2ccccc2)nc2oc(C)c(C(=O)OCC)c12`, the pIC50 [1] was 4.30 and the pIC50 (A549) was 5.57.

Compound `CCOC(=O)c1c(C)oc2nc(Nc3cccc(C)c3)nc(NC(C)C)c12` has a pIC50 [1] of 4.33 and a pIC50 (A549) of 5.07.

With `CCCCNc1nc(Nc2cccc(C)c2)nc2oc(C)c(C(=O)OCC)c12` the pIC50 (A549) was 5.05.
